Data as given in patent US12679839B2, “Cyclin-dependent kinase 7 (CDK7) non-covalent inhibitors” (JANSSEN PHARMACEUTICA NV, priority 2020, dated 2026).

Tests used:
[1] = target: T1, CDK7/Cyclin H/MAT-1 complex (Homo sapiens, UniProt P50613); assay: Flint assay, end-point fluorescence (5 nM CDK7/Cyclin H/MAT-1 complex); format: biochemical; conditions: for IC50: read-out: CDK7 (5 nM) pIC50 (converted)
T1 construct: Human CDK7 (amino acids 1-346); His6 (N); TEV protease cleavage site (N); made in house; host or cells: baculovirus-SF9 insect cells
Description: Human CDK7 (amino acids 1-346) containing an N-terminal His6-tag followed by a tobacco etch virus (TEV) protease cleavage site, human MAT1 (amino acids 1-309) and human cyclin H (amino acids 1-323) were co-expressed in the baculovirus-SF9 insect cell expression system to generate a trimeric complex. Cell pellets were collected 72 h post-infection and were resuspended by Dounce homogenization in 20 mM Hepes-NaOH (pH 8.0), 300 mM NaCl, 10% glycerol, 2 mM dithiothreitol DTT), and 20 mM Imidazole supplemented with cOmplete™ Protease Inhibitor Cocktail (Roche) and 25 U/mL Benzonase® Nuclease HC according to the manufacturer's instructions. Cells were lysed by passing through a Microfluidics M110Y Microfluidizer 3 times at 600 kPa followed by centrifugation at 38,000×g at 4° C. for 1 hour. The supernatant was loaded onto a pre-equilibrated HisTrap HP column and eluted in 20 mM Hepes-NaOH (pH 8.0), 50 mM NaCl, 10% glycerol, 2 mM DTT, and 400 mM Imidazole. The eluate was further purified by gel filtration on a Superdex S200 16/60 column and eluted with 20 mM Hepes-NaOH (pH 7.5), 50 mM NaCl, 10% Glycerol, 2 mM DTT. Fractions containing a trimeric complex of CDK7, cyclin H, and MAT1 in a 1:1:1 ratio were pooled and concentrated to 3 mg/mL in a 10 kDa MWCO concentrator, and diluted to a final concentration of 1.6 mg/mL in 11.1 mM Hepes-NaOH (pH 8.0), 27.8 mM NaCl, 1.1 mM DTT and 50% glycerol.
Compounds with potencies approaching the limit of detection of the assay (IC50≤10 nM) were further assessed in a more sensitive fluorescence end-point assay.
[formula] where νo is the rate in the absence of inhibitor, νmin is the rate at highest inhibitor concentration, and h is the Hill coefficient. Flint Assay (5 nM CDK7/Cyclin H/MAT-1 Complex)
The continuous absorbance assay was converted to an end-point fluorescence assay following the NADH fluorescence signal decrease at the excitation and emission wavelengths of 340 nm and 440 nm, respectively.
Under the same concentrations of substrates and coupling reagents used in the absorbance assay, the fluorescence assay was performed at a reduced concentration of the CDK7/Cyclin H/MAT-1 complex of 5 nM (final concentration) with a reaction time of 24 hours. The percent of inhibition was calculated by the following equation. Percent of inhibition=(Sample−NC)/(PC−NC)*100 where NC is the mean if negative control (reaction without inhibitor), and PC is the mean of positive control (reaction with complete inhibition).
Dosing curves were fitted using the following equation to obtain IC50: Y=Bottom+(Top−Bottom)/(1+10^((log IC50−X)*Hill slope)) where X=log10 of the compound concentration; top and bottom can be defined by PC and NC respectively. Imaging-Based Cellular RNA PolII Ser5 Phosphorylation Assay

[2] = test system: RNA polymerase II Serine 5 phosphorylation (Rpb1 CTD), downstream substrate of CDK7; assay: Imaging-based cellular RNA PolII Ser5 phosphorylation assay in A549 cells; format: cell-based, human; conditions: challenged with compound for 3 hours; for IC50: Homo sapiens, A549, 3 h, read-out: pRNA polII Ser5 (A549) pIC50 (converted)
Method in brief: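 A549 cells seeded 20 h in DMEM with 1% FBS, then exposed to compound for 3 h at 37 °C; fixed, methanol-permeabilized and immunostained for phospho-Rpb1 CTD Ser5, read by automated imaging. Signal normalized to DMSO (high) and 10 μM LDC4297 (low) controls; IC50 from four-parameter fit of % control vs concentration.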

T1 sequence (P50613 whole entry, the tested form may be a part): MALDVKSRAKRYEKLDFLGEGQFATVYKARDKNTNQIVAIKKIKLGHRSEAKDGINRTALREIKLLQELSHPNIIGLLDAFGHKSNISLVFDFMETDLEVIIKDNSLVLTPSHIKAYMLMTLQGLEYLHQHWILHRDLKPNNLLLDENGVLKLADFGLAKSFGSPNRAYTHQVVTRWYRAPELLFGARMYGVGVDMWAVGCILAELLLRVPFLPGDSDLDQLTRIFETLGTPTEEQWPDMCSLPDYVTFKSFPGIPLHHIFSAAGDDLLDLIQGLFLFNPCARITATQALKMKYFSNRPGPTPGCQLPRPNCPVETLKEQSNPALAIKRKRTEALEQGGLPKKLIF
T1 sequence (P51946 whole entry partner, the tested form may be a part): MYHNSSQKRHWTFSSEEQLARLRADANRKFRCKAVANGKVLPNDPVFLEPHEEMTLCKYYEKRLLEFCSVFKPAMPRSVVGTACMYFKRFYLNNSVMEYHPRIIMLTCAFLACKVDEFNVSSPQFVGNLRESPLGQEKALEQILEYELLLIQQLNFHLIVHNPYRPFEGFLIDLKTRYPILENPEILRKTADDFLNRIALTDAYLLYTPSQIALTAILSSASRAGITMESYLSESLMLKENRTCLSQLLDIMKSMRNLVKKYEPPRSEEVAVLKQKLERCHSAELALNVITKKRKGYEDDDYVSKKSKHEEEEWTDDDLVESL
T1 sequence (P51948 whole entry partner, the tested form may be a part): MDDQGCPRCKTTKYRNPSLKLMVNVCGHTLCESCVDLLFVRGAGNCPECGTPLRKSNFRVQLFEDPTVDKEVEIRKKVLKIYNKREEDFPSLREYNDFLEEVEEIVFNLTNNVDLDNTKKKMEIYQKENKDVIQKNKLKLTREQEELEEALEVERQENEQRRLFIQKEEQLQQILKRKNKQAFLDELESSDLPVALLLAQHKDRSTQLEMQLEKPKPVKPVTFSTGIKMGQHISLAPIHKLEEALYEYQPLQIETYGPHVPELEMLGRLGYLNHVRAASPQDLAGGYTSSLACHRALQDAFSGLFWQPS

| Compound | CDK7 (5 nM) pIC50 [1] | IC50 [2] [nM] | IC50 [1] [nM] | pRNA polII Ser5 (A549) pIC50 [2] |
| --- | --- | --- | --- | --- |
| CC(C)n1cc(Nc2ncc3c(n2)CN(C(=O)[C@H]2CCN(C)C[C@@H]2c2ccccc2)[C@H](C)C3)cn1 [Compound 89] | <6.7 | 70.8 | – | – |
| C[C@@H]1Cc2cnc(N[C@H](C)c3ccn(C)n3)nc2CN1C(=O)[C@H]1CCN(C)C[C@@H]1c1ccccc1 (single isomer, unassigned) [Compound 54] | – | 123 | 5.13 | – |
| CC(C)n1ccc(CNc2ncc3c(n2)CN(C(=O)[C@H]2CCN(C)C[C@@H]2c2ccccc2)[C@H](C)C3)n1 [Compound 66] | 8.56 | ~28.2 | – | – |
| C[C@@H]1Cc2cnc(Nc3ccnc(C(F)F)c3)nc2CN1C(=O)[C@H]1CCN(C)C[C@@H]1c1ccccc1 [Compound 75] | 8.04 | 57.5 | – | – |
| C[C@@H]1Cc2cnc(NCc3ccsc3)nc2CN1C(=O)[C@H]1CCN(C)C[C@@H]1c1ccccc1 [Compound 48] | 7.92 | 132 | – | – |
| C[C@@H]1Cc2cnc(NC3Cc4ccccc4C3)nc2CN1C(=O)[C@H]1CCN(C)C[C@@H]1c1ccccc1 [Compound 29] | 8.55 | 12.6 | – | – |
| Cc1ncc(CNc2ncc3c(n2)CN(C(=O)[C@H]2CCN(C)C[C@@H]2c2ccccc2)[C@H](C)C3)[nH]1 [Compound 52] | 7.9 | 2450 | – | – |
| C[C@@H]1Cc2cnc(NC3CCS(=O)(=O)CC3)nc2CN1C(=O)[C@H]1CCN(C)C[C@@H]1c1ccccc1 [Compound 44] | 8.04 | 3090 | – | – |
| C[C@@H]1Cc2cnc(NCc3ccn(C)n3)nc2CN1C(=O)[C@H]1CCN(C)C[C@@H]1c1ccccc1 [Compound 1] | 8.61 | ~45.7 | – | – |
| C[C@@H]1Cc2cnc(NC[C@@H]3CCCO3)nc2CN1C(=O)[C@H]1CCN(C)C[C@@H]1c1ccccc1 [Compound 67] | – | 1320 | 16.6 | – |
| [2H]C([2H])(Nc1ncc2c(n1)CN(C(=O)[C@H]1CCN(C)C[C@@H]1c1ccccc1)[C@H](C)C2)c1ccccc1 [Compound 70] | – | 148 | 1.78 | – |
| C[C@H](Nc1ncc2c(n1)CN(C(=O)[C@H]1CCN(C)C[C@@H]1c1ccccc1)[C@H](C)C2)c1ccccn1 [Compound 20] | 8.19 | ~14.1 | – | – |
| C[C@@H]1Cc2cnc(N[C@@H](CO)c3ccccc3)nc2CN1C(=O)[C@H]1CCN(C)C[C@@H]1c1ccccc1 [Compound 71] | 8.54 | 120 | – | – |
| C[C@@H]1Cc2cnc(N[C@H]3CC[C@H](O)CC3)nc2CN1C(=O)[C@H]1CCN(C)C[C@@H]1c1ccccc1 [Compound 12] | 8.49 | 93.3 | – | – |
| C[C@@H]1Cc2cnc(N[C@H]3CC[C@H](C)CC3)nc2CN1C(=O)[C@H]1CCN(C)C[C@@H]1c1ccccc1 [Compound 13] | 8.85 | ~33.9 | – | – |
| C[C@@H]1Cc2cnc(N[C@H](CO)c3ccccc3)nc2CN1C(=O)[C@H]1CCN(C)C[C@@H]1c1ccccc1 [Compound 72] | 8.22 | 200 | – | – |
| C[C@@H]1Cc2cnc(NC[C@H]3CCOC3)nc2CN1C(=O)[C@H]1CCN(C)C[C@@H]1c1ccccc1 [Compound 53] | 7.99 | 575 | – | – |
| C[C@@H]1Cc2cnc(NCc3ccccc3)nc2CN1C(=O)[C@H]1CCN(C)C[C@@H]1c1ccccc1 [Compound 43] | 8.11 | 107 | – | – |
| C[C@H](Nc1ncc2c(n1)CN(C(=O)[C@H]1CCN(C)C[C@@H]1c1ccccc1)[C@H](C)C2)c1ccn(C)n1 (single isomer, unassigned) [Compound 55] | – | 4470 | 38.9 | – |
| Cc1cccc([C@H]2CN(C)CC[C@@H]2C(=O)N2Cc3nc(NC4CCOCC4)ncc3C[C@H]2C)c1 [Compound 93] | 8.52 | ~67.6 | – | – |
| C[C@@H]1Cc2cnc(NC3CCC(OCC4CC4)CC3)nc2CN1C(=O)[C@H]1CCN(C)C[C@@H]1c1ccccc1 (stereo partly drawn) [Compound 3] | 8.3 | 60.3 | – | – |
| Cc1cn(C)nc1CNc1ncc2c(n1)CN(C(=O)[C@H]1CCN(C)C[C@@H]1c1ccccc1)[C@H](C)C2 [Compound 61] | 7.97 | 912 | – | – |
| C[C@@H]1Cc2cnc(N[C@H]3CCC(=O)N(C)C3)nc2CN1C(=O)[C@H]1CCN(C)C[C@@H]1c1ccccc1 (relative stereo) [Compound 7] | – | 933 | 4.47 | – |
| C[C@@H]1Cc2cnc(NC[C@@H]3CCOC3)nc2CN1C(=O)[C@H]1CCN(C)C[C@@H]1c1ccccc1 [Compound 62] | 8.33 | 617 | – | – |

Further lines, results first:

| CDK7 (5 nM) pIC50 [1] | IC50 [2] [nM] | IC50 [1] [nM] | pRNA polII Ser5 (A549) pIC50 [2] | Compound |
| --- | --- | --- | --- | --- |
| 8.58 | 135 | – | – | CC(C)N1CC[C@H](C(=O)N2Cc3nc(NC4CCOCC4)ncc3C[C@H]2C)[C@@H](c2cccc(Cl)c2)C1 (single isomer, unassigned) [Compound 160] |
| 7.8 | 3550 | – | – | C[C@@H]1Cc2cnc(NC3CCS(=O)(=O)CC3)nc2CN1C(=O)N1CCN(C)C[C@@H]1c1ccccc1 [Compound 214] |
| 7.77 | 324 | – | – | CN1CC[C@H](C(=O)N2Cc3nc(Nc4cnn(C)c4)ncc3[C@@H]3C[C@@H]32)[C@@H](c2ccccc2)C1 [Compound 200] |
| – | 437 | 12.9 | – | CO[C@H]1CC[C@H](Nc2ncc3c(n2)CN(C(=O)[C@H]2CCN(C)C[C@@H]2c2ccc(C)nc2)[C@H](C)C3)CC1 (relative stereo) [Compound 110] |
| – | 380 | 9.12 | – | C[C@H]1Cc2cnc(Nc3cnn(C)c3)cc2CN1C(=O)[C@H]1CCN(C)C[C@@H]1c1ccccc1 (relative stereo) [Compound 176] |
| 7.05 | 3630 | – | – | CN1CC[C@H](C(=O)N2Cc3nc(NC4CCOCC4)ncc3C(C)(C)C2)[C@@H](c2ccccc2)C1 [Compound 193] |
| – | 1510 | 75.9 | – | C[C@@H]1Cc2cnc(NCc3ccn(C)n3)nc2CN1C(=O)[C@@H]1CCN(C)C[C@H]1c1cccc(OC(F)(F)F)c1 (relative stereo) [Compound 127] |
| 8.68 | ~32.4 | – | – | C[C@@H]1c2nc(NC3CCOCC3)ncc2[C@@H](C)CN1C(=O)[C@H]1CCN(C)C[C@@H]1c1ccccc1 [Compound 180a] |
| – | ~97.7 | 22.4 | – | CO[C@H]1CC[C@H](Nc2cc3c(cn2)C[C@H](C)N(C(=O)[C@H]2CCN(C)C[C@@H]2c2cccc(C)c2)C3)CC1 [Compound 177c] |
| 7.88 | 724 | – | – | C[C@@H]1Cc2cnc(NC3CCN(S(=O)(=O)N(C)C)CC3)nc2CN1C(=O)N1CCN(C)C[C@@H]1c1ccccc1 [Compound 211] |
| 8.27 | ~58.9 | – | – | CN1CC[C@H](C(=O)N2Cc3nc(NC4CCOCC4)ncc3[C@@H]3C[C@@H]32)[C@@H](c2ccccc2)C1 [Compound 199] |
| – | 288 | 5.75 | – | C[C@H]1Cc2cnc(NC3CCOCC3)cc2CN1C(=O)[C@H]1CCN(C)C[C@@H]1c1ccccc1 (single isomer, unassigned) [Compound 171a] |
| 8.19 | 234 | – | – | CC(C)N1CCN(C(=O)N2Cc3nc(NC4CCOCC4)ncc3C[C@H]2C)[C@@H](c2ccccc2)C1 [Compound 206] |
| – | – | 12.3 | 6.98 | CO[C@H]1CC[C@H](Nc2cc3c(cn2)C[C@H](C)N(C(=O)[C@@H]2CCN(C)C[C@H]2c2cccc(C)c2)C3)CC1 [Compound 177a] |
| – | 102 | 6.76 | – | C[C@@H]1Cc2cnc(NCc3ccn(C)n3)nc2CN1C(=O)[C@H]1CCN(C)C[C@@H]1c1cccc(OC(F)(F)F)c1 (relative stereo) [Compound 128] |
